# Source: paper PMC6895180 (Nature Communications, 2019)
# Values joined by “and” are separate entries in the source; they are usually repeats but may differ in a detail not shown here. Equal entries are not always repeated. Where two headings read alike, the source gives them in different places.
# What was measured:
# P2 transporter (TbAT1) [1] = target: T1, P2 transporter (TbAT1) (Trypanosoma brucei brucei, UniProt Q9Y0I0); experiment: cell-based
# Procedure: Non-specific association of radiolabel with the cell pellet was determined using an identical incubation in the presence of saturating (1 mM) unlabelled adenosine.
# P1 transporter = target: P1 transporter; set-up: method as in PMID 10570043; conditions: ref [29]; cited from earlier work
# [2] = system: T. brucei BSF s427 wildtype cells; experiment: Growth assays of T. brucei (trypanocidal/trypanostatic effect); type: cell-based, Trypanosoma brucei; conditions: experiment 1
# Procedure: Growth assays of T. brucei
# To test the effect of the novel adenosine analogues on the growth of T. brucei BSF, s427 wildtype cells were seeded at 1×10^5 cells mL-1 in 5 mL of HMI-9 medium with 10% FBS and treated with compounds […]
# cells were also incubated in drug-free medium under the same conditions. 2 μM of 2’-deoxycoformycin were added to all cultures to avoid any potential effect of serum adenosine deaminase on the activity of test compounds and cordycepin.1
# Cells were manually counted in Neubauer chambers at 0, 2, 4, 6, 8, 12, 24, 36 and 48 h after addition of […]
# the drugs. […]
# After 6 and 12 h after addition of drugs, approximately 2×10^6 cells were harvested from each group and applied to glass slides pre-treated with poly-L-lysine, left to settle for 5 min and fixed with 4% formaldehyde for 4 min. The formaldehyde was neutralised by addition of 100 mM glycine (20 min).
# Cells were washed once with PBS and blocked for 1 h with 1% BSA/0.2% Tween-20 in PBS. Cells were […]
# [3] = system: Lister 427WT T. b. brucei; experiment: Adenosine deaminase susceptibility (drug sensitivity with/without 2 µM deoxycoformycin); type: cell-based, Trypanosoma brucei brucei; conditions: Trypanosoma brucei, Lister 427WT, mean ± SEM, n=3
# Procedure: Drug susceptibility tests with Lister 427WT, TbAT1-KO[48], B48[26] and ISMR1[27] were performed using an assay based on the viability indicator dye resazurin in 96-well plates, each well containing 2 × 10^4 cells. The plates were incubated for 48 h with a doubling dilution series of the test compounds in HMI-9/fetal bovine serum at 37 °C/5% CO2 (23 dilutions starting at 100 µM, except for the pentamidine control (50 µM)), after which resazurin (20 µL of 125 µg mL^−1 resazurin sodium salt solution was added to each well (containing 200 µL of cells and test compound)) was added to each well and the plates incubated for another 24 h. Fluorescence was determined using a FLUOstar Optima (BMG Labtech, Durham, NC) and the results fitted to a sigmoid curve with variable slope using Prism 5.0 or Prism 7.04 (GraphPad, San Diego, CA). […]
# Adenosine deaminase susceptibility
# in the presence or absence of 2 µM 2’-deoxycoformycin. […]
# P2 transporter (TbAT1) [4] = target: T1, P2 transporter (TbAT1); set-up: method as in PMID 24283924; conditions: ref [18]; cited from earlier work
# T1 sequence (Q9Y0I0 entry or part of it): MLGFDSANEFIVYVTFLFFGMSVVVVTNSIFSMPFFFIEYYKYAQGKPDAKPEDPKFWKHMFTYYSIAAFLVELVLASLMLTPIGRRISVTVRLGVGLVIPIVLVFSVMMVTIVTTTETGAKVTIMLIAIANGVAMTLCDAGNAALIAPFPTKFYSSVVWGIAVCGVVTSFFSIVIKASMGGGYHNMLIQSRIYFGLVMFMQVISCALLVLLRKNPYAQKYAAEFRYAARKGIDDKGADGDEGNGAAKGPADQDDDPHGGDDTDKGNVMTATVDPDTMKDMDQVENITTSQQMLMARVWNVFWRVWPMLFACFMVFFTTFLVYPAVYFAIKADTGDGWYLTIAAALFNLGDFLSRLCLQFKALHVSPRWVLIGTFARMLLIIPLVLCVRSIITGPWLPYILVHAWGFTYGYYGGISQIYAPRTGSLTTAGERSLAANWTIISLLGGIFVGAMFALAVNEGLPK
smiles,measurement,setting,value
"Nc1ncnc2c1ncn2[C@@H]1O[C@H](CO)C[C@H]1O [Compound 3, cordycepin, reference compound]","P2 Ki, fold lower than the Km value for adenosine",P2 transporter (TbAT1) [1],roughly 3 fold
same,energy advantage at P2 versus adenosine,P2 transporter (TbAT1) [1],roughly 3 kJ mol^−1
same,P2 transporter ΔG^0,P2 transporter (TbAT1) [1]; Gibbs free energy from −RT ln(Ki),-9.2 kcal/mol
same,P2 transporter δ(ΔG^0),P2 transporter (TbAT1) [1]; in comparison to adenosine,-0.645 kcal/mol
same,Ki,P1 transporter,210000 ± 48000 nM
same,AVG of cells/mL,"[2]; 2xEC50, 2 h",122500 cells/mL
same,Cells/mL,"[2]; 2xEC50, 2 h",130000 Cells/mL and 115000 Cells/mL
same,Counts,"[2]; 2xEC50, 2 h",52 and 46
same,AVG of cells/mL,"[2]; 2xEC50, 4 h",122500 cells/mL
same,Cells/mL,"[2]; 2xEC50, 4 h",110000 Cells/mL and 135000 Cells/mL
same,Counts,"[2]; 2xEC50, 4 h",44 and 54
same,AVG of cells/mL,"[2]; 2xEC50, 6 h",161250 cells/mL
same,Cells/mL,"[2]; 2xEC50, 6 h",150000 Cells/mL and 172500 Cells/mL
same,Counts,"[2]; 2xEC50, 6 h",60 and 69
same,AVG of cells/mL,"[2]; 2xEC50, 8 h",187500 cells/mL
same,Cells/mL,"[2]; 2xEC50, 8 h",207500 Cells/mL and 167500 Cells/mL
same,Counts,"[2]; 2xEC50, 8 h",83 and 67
same,AVG of cells/mL,"[2]; 2xEC50, 12 h",195000 cells/mL
same,Counts,"[2]; 2xEC50, 12 h",75 and 81
same,AVG of cells/mL,"[2]; 2xEC50, 24 h",106250 cells/mL
same,Cells/mL,"[2]; 2xEC50, 24 h",82500 Cells/mL and 130000 Cells/mL
same,Counts,"[2]; 2xEC50, 24 h",33 and 52
same,AVG of cells/mL,"[2]; 2xEC50, 36 h",81250 cells/mL
same,Counts,"[2]; 2xEC50, 36 h",29 and 36
same,AVG of cells/mL,"[2]; 2xEC50, 48 h",105000 cells/mL
same,Cells/mL,"[2]; 2xEC50, 48 h",105000 Cells/mL
same,Counts,"[2]; 2xEC50, 48 h",42
same,AVG of cells/mL,"[2]; 5xEC50, 2 h",145000 cells/mL
same,Cells/mL,"[2]; 5xEC50, 2 h",177500 Cells/mL and 112500 Cells/mL
same,Counts,"[2]; 5xEC50, 2 h",71 and 45
same,AVG of cells/mL,"[2]; 5xEC50, 4 h",118750 cells/mL
same,Cells/mL,"[2]; 5xEC50, 4 h",107500 Cells/mL and 130000 Cells/mL
same,Counts,"[2]; 5xEC50, 4 h",43 and 52
same,AVG of cells/mL,"[2]; 5xEC50, 6 h",130000 cells/mL
same,Cells/mL,"[2]; 5xEC50, 6 h",130000 Cells/mL
same,Counts,"[2]; 5xEC50, 6 h",52
same,AVG of cells/mL,"[2]; 5xEC50, 8 h",172500 cells/mL
same,Cells/mL,"[2]; 5xEC50, 8 h",177500 Cells/mL and 167500 Cells/mL
same,Counts,"[2]; 5xEC50, 8 h",71 and 67
same,AVG of cells/mL,"[2]; 5xEC50, 12 h",156250 cells/mL
same,Counts,"[2]; 5xEC50, 12 h",60 and 65
same,AVG of cells/mL,"[2]; 5xEC50, 24 h",33750 cells/mL
same,Cells/mL,"[2]; 5xEC50, 24 h",35000 Cells/mL and 32500 Cells/mL
same,Counts,"[2]; 5xEC50, 24 h",14 and 13
same,AVG of cells/mL,"[2]; 5xEC50, 36 h",31250 cells/mL
same,Cells/mL,"[2]; 5xEC50, 36 h",32500 Cells/mL and 30000 Cells/mL
same,Counts,"[2]; 5xEC50, 36 h",13 and 12
same,AVG of cells/mL,"[2]; 5xEC50, 48 h",15000 cells/mL
same,Cells/mL,"[2]; 5xEC50, 48 h",15000 Cells/mL
same,Counts,"[2]; 5xEC50, 48 h",6
same,EC50,"[3]; absence of deoxycoformycin, read-out: T. b. brucei EC50, -Dcf",440 ± 110 nM
same,EC50,"[3]; presence of 2 µM deoxycoformycin, read-out: T. b. brucei EC50, +Dcf",3.6 ± 1 nM
same,Ki,P2 transporter (TbAT1) [4],180 ± 20 nM
